Source: patent US12215098B2 (priority 2018, dated 2025)
Entries after “also recorded” stand apart in the source; their conditions may differ.

Experiments:
[1] = Hygroscopicity study by dynamic vapor sorption (DVS); assay type: physicochemical; conditions: 25° C. and 80% RH
Method: Dynamic Vapor Sorption (DVS) Method Used in the Present Disclosure
Instrument model: SMS DVS Advantage dynamic vapor sorption apparatus
Test condition: The sample (10 to 15 mg) was placed in a DVS sample pan for testing.
The detailed DVS parameters were as follows:
Equilibration: dm/dt=0.01%/min (The shortest time: 10 min, and the longest time: 180 min)
Drying: Dried for 120 min at 0% RH
RH (%) test gradient: 10%
Range of RH (%) test gradient: 0%-90%-0%
The classification of hygroscopicity evaluation was as follows:
SMS DVS Advantage dynamic vapor sorption apparatus

[2] = Solid stability test (high temperature, high humidity, strong light; XRPD); assay type: physicochemical
Source text: For the samples placed under high temperature and high humidity conditions, the vial opening was sealed with aluminum foil paper and small holes were punched in the aluminum foil paper to ensure that the sample can fully contact the ambient air. For the samples placed under strong light condition, the vial opening was sealed with aluminum foil paper. The samples placed under various conditions were sampled and tested for XRPD on the 5th day and 10th day, and the test results were compared with the initial test results on day 0.

[3] = tested on: NASH model (high-fat diet feeding and CCl4 induction); experiment: In vivo efficacy assay, high-fat diet and CCl4 induced NASH model; parameters: species or system mice
Method: The model building in this assay included two steps: high-fat diet feeding and CCl4 induction. Firstly, the mice were fed with high-fat diet to induce non-alcoholic fatty liver. The mice with a body weight of >35 g were selected and continued to be fed with high-fat diet while being administered with 25% CCl4 ([…]) by intraperitoneal injection twice a week for four weeks.
The day when the administration of CCl4 was started was set as day 0, and the time when the administration of CCl4 was started was set as hour 0. On the day when the administration of CCl4 was started, the administration was started by intragastric gavage. […] The time point of the injection of CCl4 should be 4 hours or longer apart from the time point of the first administration of the day.
The healthy control group consisted of 6 normal mice, which were fed with ordinary diet during the assay, without CCl4 injection.
48 obese mice were used in the model group and the administration group. Each group consisted of 8 mice. After grouping, the mice were injected intraperitoneally with CCl4 and administered with different doses of drugs or vehicle, respectively.
The analysis software Graphpad Prism6 was used for comparation between two groups.
For the analysis of hepatic pathology in animal models of non-alcoholic steatohepatitis, the therapeutic effect of the compound on NAFLD was comprehensively evaluated in three aspects of hepatocyte steatosis, hepatocyte ballooming degeneration, and inflammation accumulation in hepatic lobule with the reference of clinicopathological diagnosis and evaluation criteria for NAFLD, and using NAFLD activity score (NAS).
All slices stained with Sirius red were wholly scanned by a Digital pathoscope 4S slide scanner. 2 fields of view were randomly selected under a 5× field of view, and 2 fields of view covered 85% of the liver tissue area. Image pro-plus 6.0 software was then used for quantitative analysis, and fibrosis deposition area in the slice was calculated.

[4] = biological target: Glutathione-S-transferase-labeled FXR human protein (Homo sapiens (Human), UniProt Q96RI1); experiment: FXR biochemical assay (alphascreen); conditions: FXR with biotin-labeled steroid receptor coactivator, read-out: EC50 (nM) Mean ± SEM, activation effect on FXR
Glutathione-S-transferase-labeled FXR human protein, sequence (Q96RI1 whole entry): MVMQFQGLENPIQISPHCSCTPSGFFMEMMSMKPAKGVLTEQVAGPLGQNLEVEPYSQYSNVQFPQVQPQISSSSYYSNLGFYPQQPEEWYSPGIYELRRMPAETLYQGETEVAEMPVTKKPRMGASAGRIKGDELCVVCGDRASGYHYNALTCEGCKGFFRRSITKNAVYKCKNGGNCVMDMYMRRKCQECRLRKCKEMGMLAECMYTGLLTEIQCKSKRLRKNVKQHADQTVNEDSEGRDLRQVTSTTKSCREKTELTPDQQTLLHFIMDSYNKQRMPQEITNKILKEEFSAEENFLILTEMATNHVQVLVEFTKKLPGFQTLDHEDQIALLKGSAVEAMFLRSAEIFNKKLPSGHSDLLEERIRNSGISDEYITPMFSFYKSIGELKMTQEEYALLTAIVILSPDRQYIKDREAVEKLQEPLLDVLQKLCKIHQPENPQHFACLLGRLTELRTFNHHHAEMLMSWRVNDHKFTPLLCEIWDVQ
Method: 1. […] The reference compound was prepared as a 400 μM DMSO solution, and then diluted 1.5-fold to 10 concentration points. […] 2. […] 3. […] 4. […] 5. […] 6.

[5] = 15 mg/kg, intragastric gavage once a day, 28 days, Mean±SEM
[6] = 7.5 mg/kg, intragastric gavage once a day, 28 days, Mean±SEM

| Compound | Classification of hygroscopicity [1] | ΔW, weight increase by moisture absorption [1] | Crystal form (XRPD) ([2]; Day 0, initial) | Crystal form (XRPD) ([2]; High humidity (room temperature/relative humidity at 92.5%, open), Day 5) | Crystal form (XRPD) ([2]; High humidity (room temperature/relative humidity at 92.5%, open), Day 10) | Crystal form (XRPD) ([2]; High temperature (60° C., open), Day 5) | Crystal form (XRPD) ([2]; High temperature (60° C., open), Day 10) | Crystal form (XRPD) ([2]; Strong light (5000 lx, sealed), Day 5) | Crystal form (XRPD) ([2]; Strong light (5000 lx, sealed), Day 10) | Solid stability (in words) ([2]; high temperature, high humidity and strong light) | Hepatocyte ballooming degeneration score [3, 5] | NAS score [3, 5] | NAS score ([3]; 15 mg/kg, intragastric gavage once a day, 28 days, Mean±SEM, listed as PX104) | EC50 [4] | Hepatic fibrosis (fibrosis deposition area, Sirius red) [3, 6] | Hepatocyte ballooming degeneration score [3, 6] | Hepatic steatosis score [3, 5] | Hepatocyte ballooming degeneration score ([3]; 45 mg/kg, intragastric gavage once a day, 28 days, Mean±SEM, one mouse 0.17 determined as abnormal value) | Hepatic function and hepatic damage (in words) ([3]; conclusion of the assay) |
| --- | --- | --- | --- | --- | --- | --- | --- | --- | --- | --- | --- | --- | --- | --- | --- | --- | --- | --- | --- |
| O=C(O)c1cnc(N2C(=O)CCc3cc(OCc4c(-c5c(Cl)cccc5Cl)noc4C4CC4)ccc32)c(Cl)c1 | slightly hygroscopic | 0.5834% | Crystal form A | Crystal form A | Crystal form A | Crystal form A | Crystal form A | Crystal form A | Crystal form A | good stability; also recorded: stable |  |  |  |  |  |  |  |  |  |
| O=C(O)c1ccnc(N2CC(O)(c3ccc(OCc4c(-c5c(Cl)cccc5Cl)noc4C4CC4)cc3Cl)C2)c1 [PX-104, reference compound] |  |  |  |  |  |  |  |  |  |  | 0.0 | 1.479 | significantly reduce the NAS score | 65.2 nM |  |  |  |  |  |
| O=C(O)c1cnc(N2C(=O)CCc3cc(OCc4c(-c5c(Cl)cccc5Cl)noc4C4CC4)ccc32)c(Cl)c1 [compound of formula (I)] |  |  |  |  |  |  |  |  |  |  | 0.0 |  |  |  | 2.580 | 0.0 | 0.854 | 0.021^@ ± | significantly improve hepatic function and reduce hepatic damage |
